In PMC9917560, “Design, Synthesis and Antimicrobial Evaluation of New N-(1-Hydroxy-1,3-dihydrobenzo[c][1,2]oxaborol-6-yl)(hetero)aryl-2-carboxamides as Potential Inhibitors of Mycobacterial Leucyl-tRNA Synthetase” (International Journal of Molecular Sciences, 2023):
pIC50: −log10 of the molar value. Converted amounts (≈) assume the structure as drawn. Like-named read-outs stand apart in the source and are kept apart here.

What was measured:
[1] = test system: Mycobacterium tuberculosis H37Ra ITM-M006710 (ATCC 9431); experiment: Antimycobacterial microdilution (resazurin) vs Mtb H37Ra; assay type: cell-based; details: Middlebrook 7H9, resazurin, recalculated from µg/mL, read-out: MIC Mtb H37Ra
[2] = test system: Mycobacterium tuberculosis H37Rv CNCTC My 331/88 (ATCC 27294); experiment: Microplate Alamar Blue assay vs Mtb H37Rv; assay type: cell-based; details: Mycobacterium tuberculosis, pH 6.6, MABA, Middlebrook 7H9 pH 6.6, recalculated from µg/mL; read-out: MIC Mtb H37Rv
[3] = test system: Mycobacterium kansasii DSM 44,162 (ATCC 12478); experiment: Antimycobacterial microdilution (resazurin) vs M. kansasii; assay type: cell-based; details: Middlebrook 7H9, resazurin, read-out: MIC M. kansasii
[4] = test system: Mycobacterium avium DSM 44,156 (ATCC 25291); experiment: Antimycobacterial microdilution (resazurin) vs M. avium; assay type: cell-based; details: Mycobacterium avium, Middlebrook 7H9, resazurin; read-out: MIC M. avium
[5] = test system: Mycolicibacterium aurum DSM 43,999 (ATCC 23366); experiment: Antimycobacterial microdilution (resazurin) vs M. aurum; assay type: cell-based; details: Middlebrook 7H9, resazurin, read-out: MIC M. aurum
[6] = test system: Mycolicibacterium smegmatis DSM 43,465 (ATCC 607); experiment: Antimycobacterial microdilution (resazurin) vs M. smegmatis; assay type: cell-based; details: Middlebrook 7H9, resazurin, read-out: MIC M. smeg.
[7] = test system: Staphylococcus aureus subsp. aureus CCM 4223 (ATCC 29213); experiment: Antibacterial microdilution broth (EUCAST); assay type: cell-based; details: read-out: MIC Staphylococcus aureus subsp. aureus
[8] = test system: methicillin-resistant Staphylococcus aureus subsp. aureus (MRSA) CCM 4750 (ATCC 43300); experiment: microbe, parasite or virus in culture; assay type: cell-based; details: read-out: MIC Methicillin-resistant Staphylococcus aureus subsp. aureus
[9] = test system: Staphylococcus epidermidis CCM 4418 (ATCC 12228); experiment: Antibacterial microdilution broth (EUCAST); assay type: cell-based; details: read-out: MIC Staphylococcus epidermidis
[10] = test system: Enterococcus faecalis CCM 4224 (ATCC 29212); experiment: Antibacterial microdilution broth (EUCAST); assay type: cell-based; details: read-out: MIC Enterococcus faecalis
[11] = test system: Escherichia coli CCM 3954 (ATCC 25922); experiment: Antibacterial microdilution broth (EUCAST); assay type: cell-based; details: Escherichia coli, read-out: MIC Escherichia coli
[12] = test system: Klebsiella pneumoniae CCM 4415 (ATCC 10031); experiment: Antibacterial microdilution broth (EUCAST); assay type: cell-based; details: Klebsiella pneumoniae, read-out: MIC Klebsiella pneumoniae
[13] = test system: Acinetobacter baumannii DSM 30007 (ATCC 19606); experiment: Antibacterial microdilution broth (EUCAST); assay type: cell-based; details: read-out: MIC Acinetobacter baumannii
[14] = test system: Pseudomonas aeruginosa CCM 3955 (ATCC 27853); experiment: Antibacterial microdilution broth (EUCAST); assay type: cell-based; details: read-out: MIC Pseudomonas aeruginosa
[15] = test system: Candida albicans CCM 8320 (ATCC 24433); experiment: Antifungal microdilution broth (EUCAST); assay type: cell-based; details: Candida albicans, read-out: MIC Candida albicans
[16] = test system: Candida krusei CCM 8271 (ATCC 6258); experiment: Antifungal microdilution broth (EUCAST); assay type: cell-based; details: Pichia kudriavzevii, read-out: MIC Candida krusei
[17] = test system: Candida parapsilosis CCM 8260 (ATCC 22019); experiment: Antifungal microdilution broth (EUCAST); assay type: cell-based; details: Lodderomyces parapsilosis, read-out: MIC Candida parapsilosis
[18] = test system: Candida tropicalis CCM 8264 (ATCC 750); experiment: Antifungal microdilution broth (EUCAST); assay type: cell-based; details: read-out: MIC Candida tropicalis
[19] = test system: Aspergillus fumigatus ATCC 204305; experiment: Antifungal microdilution broth (EUCAST); assay type: cell-based; details: Aspergillus fumigatus, ATCC204305, read-out: MIC Aspergillus fumigatus
[20] = test system: Aspergillus flavus CCM 8363; experiment: Antifungal microdilution broth (EUCAST); assay type: cell-based; details: Aspergillus flavus, CCM8363, read-out: MIC Aspergillus flavus
[21] = test system: Lichtheimia corymbifera CCM 8077; experiment: Antifungal microdilution broth (EUCAST); assay type: cell-based; details: Lichtheimia corymbifera, CCM8077, read-out: MIC Lichtheimia corymbifera
[22] = test system: Trichophyton interdigitale CCM 8377 (ATCC 9533); experiment: Antifungal microdilution broth (EUCAST); assay type: cell-based; details: Trichophyton interdigitale, read-out: MIC Trichophyton interdigitale
[23] = test system: HepG2 cell line; experiment: Cytotoxicity screening, CellTiter 96 assay; details: Homo sapiens, HepG2, 24 h, read-out: IC50 HepG2

Work on O=C(O)c1cn(C2CC2)c2cc(N3CCNCC3)c(F)cc2c1=O [CIP, ciprofloxacin, reference compound] yielded an MIC [1] of 1.51 µM (≈ 0.5 µg/mL), an MIC [2] of 0.6 µM (≈ 0.199 µg/mL) and an MIC [3] of 0.75 µM (≈ 0.249 µg/mL). The MIC [4] was 1.51 µM (≈ 0.5 µg/mL), the MIC [5] was 0.05 µM (≈ 0.0166 µg/mL) and the MIC [6] was 0.19 µM (≈ 0.063 µg/mL).

O=C(Nc1ccc2c(c1)B(O)OC2)c1cnccn1 [Compound 1, N-(1-hydroxy-1,3-dihydrobenzo[c][1,2]oxaborol-6-yl)pyrazine-2-carboxamide] gave an MIC [1] of 123 µM (≈ 31.3 µg/mL), an MIC [2] of 49 µM (≈ 12.5 µg/mL) and an MIC [3] of 30.6 µM (≈ 7.81 µg/mL). It also gave an MIC [4] of 123 µM (≈ 31.3 µg/mL), an MIC [5] of 15.3 µM (≈ 3.91 µg/mL) and an MIC [6] of 30.6 µM (≈ 7.81 µg/mL). The MIC ([7]; 24h incubation) was 250 µM (≈ 63.8 µg/mL), the MIC ([7]; 48h incubation) was 250 µM (≈ 63.8 µg/mL) and the MIC ([8]; 24 h) was 500 µM (≈ 128 µg/mL). For the same molecule, the MIC ([8]; 48 h) was 500 µM (≈ 128 µg/mL), the MIC ([9]; 24h incubation) was 500 µM (≈ 128 µg/mL) and the MIC ([9]; 48h incubation) was 500 µM (≈ 128 µg/mL). The MIC ([10]; 24h incubation) was over 500 µM, the MIC ([10]; 48h incubation) was over 500 µM and the MIC ([11]; 24h incubation) was over 500 µM. For the same molecule, the MIC ([11]; 48h incubation) was over 500 µM, the MIC ([12]; 24h incubation) was over 500 µM and the MIC ([12]; 48h incubation) was over 500 µM. The MIC ([13]; 24h incubation) was over 500 µM, the MIC ([13]; 48h incubation) was over 500 µM and the MIC ([14]; 24h incubation) was over 500 µM. The MIC ([14]; 48h incubation) was over 500 µM, the MIC ([15]; 24h incubation) was over 500 µM and the MIC ([15]; 48h incubation) was over 500 µM. For the same molecule, the MIC ([16]; 24h incubation) was over 500 µM, the MIC ([16]; 48h incubation) was over 500 µM and the MIC ([17]; 24h incubation) was over 500 µM. It also gave an MIC ([17]; 48h incubation) of over 500 µM, an MIC ([18]; 24h incubation) of over 500 µM and an MIC ([18]; 48h incubation) of over 500 µM. For the same molecule, the MIC ([19]; 24h incubation) was over 500 µM, the MIC ([19]; 48h incubation) was over 500 µM and the MIC ([20]; 24h incubation) was over 500 µM. It also gave an MIC ([20]; 48h incubation) of over 500 µM, an MIC ([21]; 24h incubation) of over 500 µM and an MIC ([21]; 48h incubation) of over 500 µM. It also gave an MIC ([22]; 72h incubation) of over 500 µM, an MIC ([22]; 120h incubation) of over 500 µM and a melting point of 261.3 to 262.3 °C. It also gave a pIC50 [23] of under 3.00.
